# Test results taken from patent US20160000775A1, “USE OF HIGH DOSE LAQUINIMOD FOR TREATING MULTIPLE SCLEROSIS” (Teva Pharmaceutical Industries, Ltd., priority 2012, published 2016).
# Read-outs that look alike come from different tables or passages of the source.
# Experiments:
# [1] = test system: relapsing MS; conditions: cited from earlier work
# [2] = test system: subjects with relapsing remitting multiple sclerosis (RRMS); test: Clinical trial MS-LAQ-305 (Phase III), oral laquinimod 0.6 mg/day or 1.2 mg/day vs placebo; assay type: in vivo, human
# Description: A multinational, multicenter, randomized, double-blind, parallel-group, placebo-controlled study followed by an active treatment (clinical trial MS-LAQ-305) is conducted to evaluate the efficacy, safety and tolerability of two doses of oral administration of laquinimod (0.6 mg/day or 1.2 mg/day) laquinimod in subjects with relapsing remitting multiple sclerosis (RRMS). Study Duration • Screening period: up to 1 month. • Double-blind Placebo-controlled (DBPC) period (Period 1): At least 15 months, but not more than 24 months of once-daily, oral administration of either laquinimod 0.6 mg, 1.2 mg or matching oral placebo. DBPC period for all subjects is declared closed when all ongoing enrolled subjects complete at least 15 months of treatment. • Active-treatment (AT) period (Period 2): In this period (24 months), subjects who are assigned to either 0.6 mg or 1.2 mg daily oral laquinimod during the DBPC period continue with the same treatment assignment, whereas those who are assigned to placebo receive 1.2 mg daily oral laquinimod. Eligible subjects (approximately 1,800) are randomized in a 1:1:1 ratio into one of the following treatment arms: • 1. Laquinimod 0.6 mg: two capsules, one containing 0.6 mg laquinimod and the other containing matching placebo, administered orally once daily. • 2. Laquinimod 1.2 mg: two capsules containing 0.6 mg laquinimod administered orally once daily. • 3. Matching placebo: two capsules containing placebo (matching to the 0.6 mg) administered orally once daily. The study comprises of two treatment periods, Double-blind Placebo-controlled (DBPC) and Active-treatment (AT). Subjects who complete 24 months on study drug in Period 1 or complete at least 15 months on study drug when Period 1 is declared closed continue on to Period 2. The following assessments are performed at the specified time points: • 1. Vital signs are measured at each study visit. • 2. A physical examination is performed at months -1 (screening), 0 (baseline) 1, 3, 6, and every 6 months thereafter, ETD (if applicable) and until completion visit of Period 1. During Period 2, a physical examination is performed at months 0AT (baseline, completion visit of Period 1), 1AT, 3AT, 6AT and every 6 months thereafter, until completion/ETD of Period 2. • 3. The following safety clinical laboratory tests are performed: • (a) Complete blood count (CBC) with differential-at all scheduled visits during Periods 1 and 2. • (b) Serum chemistry (including electrolytes, liver enzymes, urea, creatinine, calculated Glomerular Filtration Rate (GFR)-at screening and prior to each MRI scan, glucose, total protein, albumin, direct and total bilirubin and pancreatic amylase)-at all scheduled visits during the DBPC and AT periods. Calculated Glomerular Filtration Rate (GFR) is done at screening and prior to each MRI scan in both study periods. • (c) Lipid profile (total cholesterol, HDL, LDL, triglycerides)-at baseline and every 12 months during the DBPC and AT periods. • (d) Urinalysis-at the screening visit. • (e) Serum β-hCG (human choriogonadotropin beta) in women of child-bearing potential-at each scheduled study visit during the DBPC and AT periods. • (f) Urine β-hCG test in women of child-bearing potential-at baseline (month 0) and at all scheduled visits during the DBPC and AT periods. • (g) Starting after visit Month 3, between scheduled visits, a rapid urine β-hCG test is performed in women of child-bearing potential every 28 (±2) days. The subject is contacted within 72 hours after the scheduled test is performed and asked specific questions regarding the test. In case of suspected pregnancy (positive urine β-hCG test result) the caller instructs the subject to make sure that the study drug has been discontinued and the subject arrives at the site as soon as possible (within 10 days) with all study drugs-during the DBPC and AT periods. • 4. […]
# [3] = in vivo; cited from earlier work
# [4] = test system: subjects with RRMS; test: BRAVO Phase III clinical trial, laquinimod 0.6 mg over placebo with reference arm IFN-β-1a (Avonex®); assay type: in vivo, human; conditions: vs placebo, 24 months
# Source text: ALLEGRO and BRAVO are two clinical trials reported in, e.g., PCT International Application Publication No. WO/2010/147665 ([…] et al.). […] The primary endpoint was ARR. Secondary endpoints were Brain atrophy, time to EDSS progression confirmed at 3 months and MSFC z-score. […] One of the basic assumptions used to assess the sample size for the study was that treatment with laquinimod will reduce the patient population ARR by 25% or more when compared to the placebo group.
# [5] = test system: MS; conditions: 0.3 mg/day oral (Comi, 2007); cited from earlier work
# [6] = test system: subjects with RRMS; test: ALLEGRO Phase III clinical trial, laquinimod 0.6 mg over placebo, double-blind; assay type: in vivo, human; conditions: laquinimod 0.6 mg vs placebo, 24 months
# Description: ALLEGRO and BRAVO are two clinical trials reported in, e.g., PCT International Application Publication No. WO/2010/147665 ([…] et al.). ALLEGRO was a study performed in subjects with RRMS to assess the efficacy, safety and tolerability of laquinimod 0.6 mg over placebo in a double-blind design. The treatment duration in this study was 24 months and it enrolled 1,106 patients equally distributed between laquinimod 0.6 mg and placebo arms. The primary endpoint was annualized relapse rate (ARR). Secondary endpoints were gadolinium-enhancing (GdE)-T1 and new-T2 lesions, time to Expanded Disability Status Scale (EDSS) progression confirmed at 3 months and multiple sclerosis functional composite (MSFC) z-score. In ALLEGRO the primary endpoint (ARR) and three key secondary endpoints were met.
# [7] = daily oral 1.2 mg compared to 0.6 mg laquinimod or placebo
# [8] = corrected post-hoc analysis with two baseline MRI covariates
compound,measurement,setting,value
"CCN(C(=O)c1c(O)c2c(Cl)cccc2n(C)c1=O)c1ccccc1 [Laquinimod, laquinimod]",Development of active MRI lesions,"[1]; 0.3 mg/day oral, relapsing MS (RRMS and SPMS) (Polman, 2005)",reduce development of active MRI lesions
same,Development of active MRI lesions,"[1]; relapsing MS, dose not stated (Polman, 2005)",reduce development of active MRI lesions
same,Efficacy in treating RRMS patients with respect to all endpoints,[2]; 1.2 mg/day compared to 0.6 mg/day laquinimod,improved efficacy
same,Fatigue and functional status,[2]; 1.2 mg/day compared to 0.6 mg/day laquinimod or placebo,maintained or improved
same,Time to first confirmed relapse,[2]; daily oral 1.2 mg compared to 0.6 mg laquinimod and placebo,prolonged time to first confirmed relapse
same,Accumulation of disability as measured by the MSFC score or Timed 25-foot walk (T25FW),[2]; [7],reduced the accumulation of disability
same,Annualized relapse rate,[2]; [7],lower annualized relapse relate
same,"Brain atrophy, percent brain volume change from baseline to month 15",[2]; [7],reduced brain atrophy
same,"Brain atrophy, percent change in brain volume from baseline to month 24",[2]; [7],reduced brain atrophy
same,"Functional status and general health, Short-Form general health survey (SF-36)",[2]; [7],improved functional status and general health
same,"MRI-monitored disease activity (enhancing T1, new hypointense T1, new T2 lesion numbers and lesion volume changes)",[2]; [7],reduced MRI-monitored disease activity
same,Neuroprotection,[2]; [7],more effective in providing neuroprotection
same,Number of confirmed relapses,[2]; [7],reduced number of confirmed relapses
same,Symbol Digit Modalities Test (SDMT) score,[2]; [7],improved Symbol Digit Modalities Test (SDMT) score
same,Time to Confirmed Disease Progression (CDP),[2]; [7],prolonged time to CDP
same,Oral bioavailability,[3],high
same,"ARR % reduction, Corrected",[4]; [8],21.3%
same,"Brain Atrophy % reduction, Corrected",[4]; [8],27.4%
same,"Cumulative number of GdE T1 lesions % reduction, Corrected",[4]; [8],21.7%
same,"Cumulative number of new T2 lesions (exploratory endpoint) % reduction, Corrected",[4]; [8],18.7%
same,"EDSS Progression (3 m confirmation) % reduction, Corrected",[4]; [8],33.5%
same,"MSFC % reduction, Corrected",[4]; [8],77.1%
same,"ARR % reduction, Corrected","[4]; corrected post-hoc analysis with two baseline MRI covariates, listed as laquinimod",21.3%
same,"ARR % reduction, Original",[4]; original analysis,17.7%
same,"Brain Atrophy % reduction, Original",[4]; original analysis,27.6%
same,"Cumulative number of GdE T1 lesions % reduction, Original",[4]; original analysis,21.5%
same,"Cumulative number of new T2 lesions (exploratory endpoint) % reduction, Original",[4]; original analysis,16.5%
same,"EDSS Progression (3 m confirmation) % reduction, Original",[4]; original analysis,31.3%
same,"MSFC % reduction, Original",[4]; original analysis,77.7%
same,"ARR % reduction, Original","[4]; original analysis, listed as laquinimod",17.7%
same,MRI and clinical effect as compared to placebo,[5],neither MRI nor clinical effect
same,ARR % reduction,[6],23%
same,Brain Atrophy (exploratory endpoint) % reduction,[6],32.8%
same,Cumulative number of GdE T1 lesions % reduction,[6],37%
same,Cumulative number of new T2 lesions % reduction,[6],30%
same,EDSS Progression (3 m confirmation) % reduction,[6],36%
same,MSFC z-score % reduction,[6],51%
